From patent EP4775568A1, “NOVEL COMPOUND AND USE THEREOF FOR TREATING PSORIASIS” (Gwangju Institute of Science and Technology, priority 2023, dated 2025) come the findings set out here.

One may read the IC50 as the midpoint of a concentration-inhibition curve. Broadly, the inhibition is the share of the control response that was lost under treatment.

The test addresses T1, CMKLR1 (Homo sapiens, UniProt Q99788).
T1 construct: expressed in transfected cells; host or cells: CHO-K1 cells expressing Gα-16 (CHO-Ga16-CMKLR1)
T1 sequence (Q99788 1-373): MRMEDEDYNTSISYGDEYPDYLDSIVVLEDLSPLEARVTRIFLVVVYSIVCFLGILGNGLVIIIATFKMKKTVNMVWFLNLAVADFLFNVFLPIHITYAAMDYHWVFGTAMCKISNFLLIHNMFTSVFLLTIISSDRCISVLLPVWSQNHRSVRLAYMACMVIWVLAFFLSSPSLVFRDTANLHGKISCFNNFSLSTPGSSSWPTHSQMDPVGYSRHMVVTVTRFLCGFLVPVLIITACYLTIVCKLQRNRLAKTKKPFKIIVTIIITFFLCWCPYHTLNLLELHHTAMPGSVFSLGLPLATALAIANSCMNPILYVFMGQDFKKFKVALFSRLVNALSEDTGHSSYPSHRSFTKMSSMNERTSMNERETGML
Briefly: Calcium mobilization assay (CHO-Ga16-CMKLR1 cells, chemerin-9 induced signal). Type of test: cell-based. To be noted: for IC50: calcium signal induced by 2.5 nM chemerin-9; for inhibition at 10 µM: read-out: CMKLR1 activity in CHO cells (% inhibition at 10 µM), 10 µM compound, relative to calcium signal induced by 2.5 nM chemerin-9. The method, then:
To establish a CMKLR1 calcium mobilization cell evaluation system, CHO-K1 cells expressing Gα-16 were transfected with pcDNA3.1-derived human CMKLR1-expressing plasmids using Lipofectamine 2000 (Invitrogen, Waltham, Massachusetts, USA). […] The established cell line (CHO-Ga16-CMKLR1) was cultured in F-12 medium (Invitrogen) supplemented with 10% (v/v) fetal bovine serum (FBS; Invitrogen), 0.5 mg/mL geneticin, 0.2 mg/mL hygromycin B (Clontech), and 1% (v/v) antibiotic-antimycotic solution (Invitrogen) under 5% CO2 at 37°C.
100 µL/well was added to a 96-well plate (Corning) and incubated for 24 h. The buffer solution was prepared by adding 1 M HEPES solution to Hanks' Balanced Salt Solution (HBSS) (Invitrogen) and adjusting the pH to 7.4 by dropwise addition of 1 M NaOH.
The fluorescent dye solution was prepared using the buffer provided with the Calcium 5 Assay Kit (Molecular Devices). 40 µL/well of dye solution was added to each well and incubated at 37°C in a 5% CO2 atmosphere for 30 min. […] The final DMSO concentration was adjusted to 2%. 40 µL of each compound solution was added to the well and incubated for 30 min. […] Prism 5 software (GraphPad) was then used to obtain IC50 values for various compounds. IC50 values were derived based on concentration-response curves, and all experiments were repeated at least three times.

SMILES strings stand for the structures. Bounds are passed on as bounds.

With `CC(CC(=O)O)c1ccc(OCc2ccc3c(-c4cc(F)c(/C=N/O)c(F)c4)nn(C4CCCC4)c3c2)cc1` (stereo not shown) [Compound 34, (E)-3-(4-((1-cyclopentyl-3-(3,5-difluoro-4-((hydroxyimino)methyl)phenyl)-1H-indazol-6-yl)methoxy)phenyl)butanoic acid], the IC50 (Table 3, IC50 class) was 100 to 1000 nM. On to `CC(CC(=O)O)c1ccc(OCc2ccc3c(-c4nnn[nH]4)nn(C4CCCC4)c3c2)cc1` (stereo not shown) [Compound 32, 3-(4-((1-cyclopentyl-3-(1H-tetrazol-5-yl)-1H-indazol-6-yl)methoxy)phenyl)butanoic acid], for which the IC50 (Table 3, IC50 class) was greater than 1000 nM. Consider `CC(CC(=O)O)c1ccc(OCc2ccc3c(-c4ccccc4)nn(C(C)C)c3c2)cc1` (stereo not shown) [Compound 7, 3-(4-((1-isopropyl-3-phenyl-1H-indazol-6-yl)methoxy)phenyl)butanoic acid], for which the inhibition at 10 µM was found to be 81%.

Take `CC(CC(=O)O)c1ccc(OCc2ccc3c(-c4ccc(-c5ccccc5)cc4)nn(C4CCCC4)c3c2)cc1` (stereo not shown) [Compound 24, 3-(4-((3-([1,1'-biphenyl]-4-yl)-1-cyclopentyl-1H-indazol-6-yl)methoxy)phenyl)butanoic acid]: under “Table 2, IC50 class”, the IC50 was greater than 1000 nM.

As for `CC(CC(=O)O)c1ccc(OCc2ccc3c(-c4cc5ccccc5s4)nn(C4CCCC4)c3c2)cc1` (stereo not shown) [Compound 25, 3-(4-((3-(benzo[b]thiophen-2-yl)-1-cyclopentyl-1H-indazol-6-yl)methoxy)phenyl)butanoic acid], where the note is “Table 2, IC50 class”, the IC50 is greater than 1000 nM.

As for `C[C@@H](CC(=O)O)c1ccc(OCc2ccc3c(-c4ccc(O)c([N+](=O)[O-])c4)nn(C4CCCC4)c3c2)cc1` [Compound 37, (S)-3-(4-((1-cyclopentyl-3-(4-hydroxy-3-nitrophenyl)-1H-indazol-6-yl)methoxy)phenyl)butanoic acid], under “Table 3, IC50 class”, the IC50 was greater than 1000 nM. Take `Cc1cc(-c2nn(C3CCCC3)c3cc(COc4ccc([C@@H](C)CC(=O)O)cc4)ccc23)cc(C)c1O` [Compound 53, (S)-3-(4-((1-cyclopentyl-3-(4-hydroxy-3,5-dimethylphenyl)-1H-indazol-6-yl)methoxy)phenyl)butanoic acid]: the IC50 (Table 4, IC50 class) is 100 to 1000 nM.

For `CC(CC(=O)O)c1ccc(OCc2ccc3c(-c4ccncc4)nn(C4CCCC4)c3c2)cc1` (stereo not shown) [Compound 23, 3-(4-((1-cyclopentyl-3-(pyridin-4-yl)-1H-indazol-6-yl)methoxy)phenyl)butanoic acid], the IC50 (Table 2, IC50 class) is greater than 1000 nM.

`CC(CC(=O)O)c1ccc(OCc2ccc3c(-c4ccc(OC/C=C/C(=O)O)cc4)nn(C4CCCC4)c3c2)cc1` (stereo not shown) [Compound 28, (E)-4-(4-(6-((4-(1-carboxypropan-2-yl)phenoxy)methyl)-1-cyclopentyl-1H-indazol-3-yl)phenoxy)but-2-enoic acid]: for the setting “Table 2, IC50 class”, the IC50 is greater than 1000 nM. As for `CC(CC(=O)O)c1ccc(OCc2ccc3c(-c4ccccc4)nn(Cc4ccccc4)c3c2)cc1` (stereo not shown) [Compound 85], the inhibition at 10 µM amounted to 23%. For the compound `CC(CC(=O)O)c1ccc(OCc2ccc3c(-c4ccc(N)cc4)nn(C4CCCC4)c3c2)cc1` (stereo not shown) [Compound 59, 3-(4-((3-(4-aminophenyl)-1-cyclopentyl-1H-indazol-6-yl)methoxy)phenyl)butanoic acid], the IC50 (Table 4, IC50 class) was greater than 1000 nM. Consider `COc1ccc(-c2nn(C3CCCC3)c3cc(COc4ccc(C(C)CC(=O)O)cc4)ccc23)cc1` (stereo not shown) [Compound 15, 3-(4-((1-cyclopentyl-3-(4-methoxyphenyl)-1H-indazol-6-yl)methoxy)phenyl)butanoic acid], for which the IC50 (Table 2, IC50 class) was greater than 1000 nM. For the compound `C=CCOc1ccc(-c2nn(C3CCCC3)c3cc(COc4ccc(C(C)CC(=O)O)cc4)ccc23)cc1` (stereo not shown) [Compound 30, 3-(4-((3-(4-(allyloxy)phenyl)-1-cyclopentyl-1H-indazol-6-yl)methoxy)phenyl)butanoic acid], for the setting “Table 3, IC50 class”, the 50% inhibitory concentration (IC50) lay within 100 to 1000 nM.

As to `CC(CC(=O)O)c1ccc(OCc2ccc3c(-c4ccccc4)nn(CC4CC4)c3c2)cc1` (stereo not shown) [Compound 81, 3-(4-((1-(cyclopropylmethyl)-3-phenyl-1H-indazol-6-yl)methoxy)phenyl)butanoic acid], the inhibition at 10 µM amounted to 35%. `CC(=O)Nc1ccc(-c2nn(C3CCCC3)c3cc(COc4ccc(C(C)CC(=O)O)cc4)ccc23)cc1` (stereo not shown) [Compound 60, 3-(4-((3-(4-acetamidophenyl)-1-cyclopentyl-1H-indazol-6-yl)methoxy)phenyl)butanoic acid]: under “Table 4, IC50 class”, the IC50 is greater than 1000 nM. Consider `C[C@@H](CC(=O)O)c1ccc(OCc2ccc3c(-c4cc(Cl)c(O)cc4Cl)nn(C4CCCC4)c3c2)cc1` [Compound 46, (S)-3-(4-((1-cyclopentyl-3-(2,5-dichloro-4-hydroxyphenyl)-1H-indazol-6-yl)methoxy)phenyl)butanoic acid], for which, for the setting “Table 3, IC50 class”, the IC50 was in the range of 100 to 1000 nM. As to `CC(CC(=O)O)c1ccc(OCc2ccc3c(-c4cc(C(F)(F)F)cc(C(F)(F)F)c4)nn(C4CCCC4)c3c2)cc1` (stereo not shown) [Compound 22, 3-(4-((3-(3,5-bis(trifluoromethyl)phenyl)-1-cyclopentyl-1H-indazol-6-yl)methoxy)phenyl)butanoic acid], where the note is “Table 2, IC50 class”, the IC50 was greater than 1000 nM. Consider `C[C@@H](CC(=O)O)c1ccc(OCc2ccc3c(-c4cc(F)c(O)cc4F)nn(C4CCCC4)c3c2)cc1` [Compound 45, (S)-3-(4-((1-cyclopentyl-3-(2,5-difluoro-4-hydroxyphenyl)-1H-indazol-6-yl)methoxy)phenyl)butanoic acid], for which the IC50 (Table 3, IC50 class) lay in the range of 100 to 1000 nM. With `Cc1ccc(-c2nn(C3CCCC3)c3cc(COc4ccc(C(C)CC(=O)O)cc4)ccc23)cc1` (stereo not shown) [Compound 11, 3-(4-((1-cyclopentyl-3-(p-tolyl)-1H-indazol-6-yl)methoxy)phenyl)butanoic acid], the IC50 (Table 2, IC50 class) is greater than 1000 nM. Regarding `C[C@@H](CC(=O)O)c1ccc(OCc2ccc3c(-c4cc(Cl)c(O)c(Cl)c4)nn(C4CCCC4)c3c2)cc1` [Compound 44, (S)-3-(4-((1-cyclopentyl-3-(3,5-dichloro-4-hydroxyphenyl)-1H-indazol-6-yl)methoxy)phenyl)butanoic acid], the IC50 (Table 3, IC50 class) was in the range of 100 to 1000 nM. Still for that read-out and setting: in the case of `C[C@@H](CC(=O)O)c1ccc(OCc2ccc3c(-c4cc(F)c(CO)c(F)c4)nn(C4CCCC4)c3c2)cc1` [Compound 47, (S)-3-(4-((1-cyclopentyl-3-(3,5-difluoro-4-(hydroxymethyl)phenyl)-1H-indazol-6-yl)methoxy)phenyl)butanoic acid] it was less than 100 nM. Consider `CC(CC(=O)O)c1ccc(OCc2ccc3c(-c4cccc(O)c4)nn(C4CCCC4)c3c2)cc1` (stereo not shown) [Compound 14, 3-(4-((1-cyclopentyl-3-(3-hydroxyphenyl)-1H-indazol-6-yl)methoxy)phenyl)butanoic acid], for which the IC50 (Table 2, IC50 class) is greater than 1000 nM. Regarding `CC(CC(=O)O)c1ccc(OCc2ccc3c(-c4cc(Cl)c(O)c(Cl)c4)nn(C4CCCC4)c3c2)cc1` (stereo not shown) [Compound 20, 3-(4-((1-cyclopentyl-3-(3,5-dichloro-4-hydroxyphenyl)-1H-indazol-6-yl)methoxy)phenyl)butanoic acid], the IC50 (Table 2, IC50 class) lay in the range of 100 to 1000 nM. Take `CC(CC(=O)O)c1ccc(OCc2cnc3c(-c4cc(F)c(O)c(F)c4)nn(C4CCCC4)c3c2)cc1` (stereo not shown) [Compound 74, 3-(4-((1-cyclopentyl-3-(3,5-difluoro-4-hydroxyphenyl)-1H-pyrazolo[4,3-b]pyridin-6-yl)methoxy)phenyl)butanoic acid]: under “Table 4, IC50 class”, the 50% inhibitory concentration (IC50) is 100 to 1000 nM. Consider `CC(C)C(CC(=O)O)c1ccc(OCc2ccc3c(-c4ccccc4)nn(C(C)C)c3c2)cc1` (stereo not shown) [Compound 8, 3-(4-((1-isopropyl-3-phenyl-1H-indazol-6-yl)methoxy)phenyl)-4-methylpentanoic acid], for which the inhibition at 10 µM was 25%. Take `CC(CC(=O)O)c1ccc(OCc2cnc3c(-c4cc(Cl)c(O)c(Cl)c4)nn(C4CCCC4)c3c2)cc1` (stereo not shown) [Compound 73, 3-(4-((1-cyclopentyl-3-(3,5-dichloro-4-hydroxyphenyl)-1H-pyrazolo[4,3-b]pyridin-6-yl)methoxy)phenyl)butanoic acid]: the IC50 (Table 4, IC50 class) was in the range of 100 to 1000 nM. With `CC(CC(=O)O)c1ccc(OCc2cnc3c(-c4ccc(O)c(Cl)c4)nn(C4CCCC4)c3c2)cc1` (stereo not shown) [Compound 75, 3-(4-((3-(3-chloro-4-hydroxyphenyl)-1-cyclopentyl-1H-pyrazolo[4,3-b]pyridin-6-yl)methoxy)phenyl)butanoic acid], the IC50 (Table 4, IC50 class) lay within 100 to 1000 nM. With `CCC(CC(=O)O)c1ccc(OCc2ccc3c(-c4ccccc4)nn(C(C)C)c3c2)cc1` (stereo not shown) [Compound 9, 3-(4-((1-isopropyl-3-phenyl-1H-indazol-6-yl)methoxy)phenyl)pentanoic acid], the inhibition at 10 µM is 81%.
